Patent publication US7326732B2, “EP2 receptor agonists” (Pharmagene Laboratories Limited, priority 2004, dated 2008)

Experiments:
human EP2 receptor = target: T1, human EP2 receptor (Homo sapiens, UniProt P43116); experiment: Binding ability to human EP receptors ([3H]PGE2 displacement), EP2; conditions: membranes expressing human EP2; [3H]PGE2 3 nM; Cheng-Prusoff; read-out: pKi (M) EP2 (converted)
T1 construct: expressed in transfected cells
Method: (§1) Membranes were prepared from cells stably transfected with human EP receptor cDNA. In brief, cells were cultured to confluency, scraped from culture flasks, and centrifuged (800 g, 8 minutes, 4° C.). Cells were twice washed in ice cold homogenisation buffer containing 10 mMTris-HCl, 1 mM EDTA.2Na, 250 mM sucrose, 1 mM PMSF, 0.3 mM indomethacin, pH 7.4, homogenised and re-centrifuged as before. The supernatant was stored on ice and pellets re-homogenised and re-spun. Supernatants were pooled and centrifuged at 40000 g, 10 minutes, 4° C. Resultant membrane pellets were stored at −80° C. until use. For assay, membranes expressing human EP4, EP3, EP2 or EP1 receptors were incubated in Millipore (MHVBN45) plates containing assay buffer, radiolabelled [^3H]PGE2 and 0.1 to 10 000 nM concentrations of compounds. Incubations were performed at suitable temperatures and for suitable times to allow equilibrium to be reached. Non-specific binding was determined in the presence of 10 uM PGE2. Bound and free radiolabel was separated by vacuum manifold filtration using appropriate wash buffers, and bound radiolabel was determined by scintillation counting. Constituents of each of the buffers are included in table 1 below. […] Raven Press, New York, 2nd edition.

human EP4 receptor = target: T2, human EP4 receptor (Homo sapiens, UniProt P35408); experiment: Binding ability to human EP receptors ([3H]PGE2 displacement), EP4; conditions: membranes expressing human EP4; [3H]PGE2 1 nM; Cheng-Prusoff; read-out: pKi (M) EP4 (converted)
T2 construct: expressed in transfected cells
T2 sequence (P35408 whole entry): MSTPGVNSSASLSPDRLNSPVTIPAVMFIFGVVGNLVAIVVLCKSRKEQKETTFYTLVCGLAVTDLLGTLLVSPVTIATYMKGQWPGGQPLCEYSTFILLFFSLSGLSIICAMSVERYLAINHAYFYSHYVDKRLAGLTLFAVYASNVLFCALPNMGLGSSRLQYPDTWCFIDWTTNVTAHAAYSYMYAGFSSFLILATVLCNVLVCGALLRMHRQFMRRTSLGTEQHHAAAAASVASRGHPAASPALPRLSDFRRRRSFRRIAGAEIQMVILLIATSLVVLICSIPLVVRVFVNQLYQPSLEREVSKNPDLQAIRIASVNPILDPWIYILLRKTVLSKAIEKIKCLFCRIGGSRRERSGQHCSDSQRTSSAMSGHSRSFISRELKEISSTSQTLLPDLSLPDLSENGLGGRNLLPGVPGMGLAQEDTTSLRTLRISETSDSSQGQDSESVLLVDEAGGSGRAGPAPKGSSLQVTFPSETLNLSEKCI
Method: as §1

human EP3 receptor = target: T3, human EP3 receptor (Homo sapiens, UniProt P43115); experiment: Binding ability to human EP receptors ([3H]PGE2 displacement), EP3; conditions: membranes expressing human EP3; [3H]PGE2 2.5 nM; Cheng-Prusoff; read-out: pKi (M) EP3 (converted)
T3 construct: expressed in transfected cells
T3 sequence (P43115 1-390): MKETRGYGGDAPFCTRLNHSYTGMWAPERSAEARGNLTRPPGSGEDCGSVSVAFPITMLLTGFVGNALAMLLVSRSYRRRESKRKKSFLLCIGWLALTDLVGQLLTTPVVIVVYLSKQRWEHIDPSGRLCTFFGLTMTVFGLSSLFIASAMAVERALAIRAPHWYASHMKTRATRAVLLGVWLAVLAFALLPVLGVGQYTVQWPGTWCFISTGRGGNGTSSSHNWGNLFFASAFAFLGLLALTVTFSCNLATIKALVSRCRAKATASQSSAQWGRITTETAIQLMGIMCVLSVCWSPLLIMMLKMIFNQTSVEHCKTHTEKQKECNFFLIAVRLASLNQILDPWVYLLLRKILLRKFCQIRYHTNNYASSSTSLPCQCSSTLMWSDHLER
Method: as §1

[1] = target: T4, human EP2 prostanoid receptors (Homo sapiens, UniProt P43116); experiment: Agonist activity at recombinant human EP2 prostanoid receptors (cAMP in HEK-293 clones); assay type: cell-based; conditions: for EC50: HEK-293 stably transfected with human EP2, cAMP accumulation, read-out: pEC50 EP2 (converted); for activity (EP2 part): functional classification at EP2
T4 construct: expressed in transfected cells; host or cells: HEK-293
T4 sequence (P43116 whole entry): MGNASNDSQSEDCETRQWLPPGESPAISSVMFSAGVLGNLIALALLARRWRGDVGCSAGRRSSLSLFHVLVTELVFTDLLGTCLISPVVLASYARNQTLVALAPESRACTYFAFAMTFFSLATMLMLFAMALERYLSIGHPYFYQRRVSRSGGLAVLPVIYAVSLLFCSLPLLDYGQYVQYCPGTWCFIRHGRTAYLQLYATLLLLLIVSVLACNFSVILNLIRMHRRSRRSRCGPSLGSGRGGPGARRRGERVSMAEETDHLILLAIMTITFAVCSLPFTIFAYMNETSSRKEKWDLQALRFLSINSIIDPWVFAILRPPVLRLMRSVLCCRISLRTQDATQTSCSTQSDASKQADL
Method: Culture media was Minimal essential media (MEM), supplemented with 10% foetal bovine serum, 100 U/ml penicillin, […] streptomycin, 2.5 μg/ml fungizone, 2mM glutamine. Cells were cultured to confluency (3-4 days) prior to use. Culture media was removed, and confluent cells washed three times in MEM. […] Cells were then stimulated by the addition of 25 μl of PGE2 or agonists prepared in assay buffer. In antagonist studies, cells were pre-incubated with compounds for 30 minutes prior to PGE2-mediated stimulation Plates were incubated for 15 min at 37° C., before termination of the reaction by the addition of 25 μl 1M HCl. The plate was then frozen at -20° C. overnight before determination of cAMP concentration. Stimulated cAMP levels were determined by radioligand displacement binding. In brief, plates were thawed rapidly in a waterbath, and the samples neutralised by the addition of 25 μl 1M NaOH. 30 μl was transferred to Millipore plates pre-coated with 0.5% Polyethylenimine (PEI). Samples were diluted by addition of 90 μl cAMP determination buffer (50 mM Tris, 5 mM EDTA, pH 7.0). […] 15 μl of 2 nM (final concentration) [^3H] cAMP, and 15 μl of 3'5'-cAMP protein kinase (8 μg/well final concentration) prepared in cAMP determination buffer containing 0.1% BSA, were added to each well. Plates were incubated on ice for 2 hours, before bound and free radiolabel were separated by vacuum filtration harvesting using the Millipore vacuum manifold, using ice cold water as the termination buffer. The sealing mat was removed from the Millipore plates, and the filters allowed to dry overnight. 50 μl Microscint 0 (Packard Bioscience) was added to each well, and the plate counted using the Micro-Beta Trilux topcount ^3H program. cAMP accumulation was determined from the standard curve, and values calculated in pmoles cAMP/well. Antagonists affinities (pA2 values) were determined assuming a slope of unity and the […]-Schild equation, where pA2=log [concentration ratio-1]-log[antagonist].

T1 sequence (P43116 whole entry): as above

| Compound | Ki (human EP2 receptor) [M] | Ki (human EP4 receptor) [M] | Ki (human EP3 receptor) [M] | EC50 [1] [µM] | activity (EP2 part) [1] |
| --- | --- | --- | --- | --- | --- |
| O=C(O)Cc1cccc(NC(=O)c2ccc(-c3ccc4[nH]ccc4c3)o2)c1 [Compound 41] | < 1e-06 | > 1e-05 | > 1e-05 | < 1 | EP2 agonist |
| O=C(O)Cc1cccc(NC(=O)c2ccc(-c3ccc(F)cc3)o2)c1 [Compound 42, (3-{[5-(4-Fluoro-phenyl)-furan-2-carbonyl]-amino}-phenyl)-acetic acid] | < 1e-06 | > 1e-05 | > 1e-05 | < 0.1 | EP2 agonist |
| O=C(O)Cc1cccc(NC(=O)c2cc(-c3ccccc3)ccc2Cl)c1 [Compound 44, {3-[(4-Chloro-biphenyl-3-carbonyl)-amino]-phenyl}-acetic acid] | < 1e-06 | > 1e-05 | > 1e-05 | < 0.1 | EP2 agonist |
| O=C(O)Cc1cccc(NC(=O)c2cccc(-c3ccccc3)n2)c1 [Compound 45, {3-[(6-Phenyl-pyridine-2-carbonyl)-amino]-phenyl}-acetic acid] | < 1e-06 | > 1e-05 | > 1e-05 | < 0.1 | EP2 agonist |
| O=C(O)Cc1cccc(NC(=O)c2cccc(-c3ccccc3)c2)c1 [Compound 49, {3-[(Biphenyl-3-carbonyl)-amino]-phenyl}-acetic acid] | < 1e-06 | > 1e-05 | > 1e-05 | < 0.1 | EP2 agonist |
| O=C(O)Cc1cccc(NC(=O)c2cc(-c3ccccc3)ccc2F)c1 [Compound 51, {3-[(4-Fluoro-biphenyl-3-carbonyl)-amino]-phenyl}-acetic acid] | < 1e-06 | > 1e-05 | > 1e-05 | < 0.1 | EP2 agonist |
| O=C(O)Cc1cccc(NC(=O)c2cc(F)cc(-c3ccccc3)c2)c1 [Compound 52, {3-[(5-fluoro-biphenyl-3-carbonyl)-amino]-phenyl}-acetic acid] | < 1e-06 | > 1e-05 | > 1e-05 | < 0.1 | EP2 agonist |
| O=C(O)Cc1cccc(NC(=O)c2csc(-c3ccccc3)n2)c1 [Compound 54, {3-[(2-Phenyl-thiazole-4-carbonyl)-amino]-phenyl}-acetic acid] | < 1e-06 | > 1e-05 | > 1e-05 | < 1 | EP2 agonist |
| O=C(O)c1cccc(CNC(=O)c2ccc(-c3ccccc3)o2)c1 [Compound 57, 3-{[(5-Phenyl-furan-2-carbonyl)-amino]-methyl}-benzoic acid] | < 1e-05 | > 1e-05 | > 1e-05 | < 1 | EP2 Agonist |
| O=C(O)CCc1cccc(NC(=O)c2ccc(-c3ccccc3)o2)c1 [Compound 62, 3-{3-[(5-Phenyl-furan-2-carbonyl)-amino]-phenyl}-propionic acid] | < 1e-06 | > 1e-05 | > 1e-05 | < 0.1 | EP2 agonist |
| O=C(O)/C=C/c1cccc(NC(=O)c2ccc(-c3ccc(F)cc3)o2)c1 [Compound 71, 3-(3-{[5-(4-Fluoro-phenyl)-furan-2-carbonyl]-amino}-phenyl)-acrylic acid] | < 1e-07 | > 1e-05 | > 1e-05 |  | EP2 agonist |
| O=C(Nc1cccc(CCO)c1)c1ccc(-c2ccccc2)o1 [Compound 74] | < 1e-05 | > 1e-05 | > 1e-05 | < 10 |  |
| O=C(Nc1cccc(Cc2nnn[nH]2)c1)c1ccc(-c2cccc(Cl)c2)o1 [Compound 81, 5-(3-Chloro-phenyl)-furan-2-carboxylic acid [3-(1H-tetrazol-5-ylmethyl)-phenyl]-amide] | < 1e-07 | > 1e-05 | > 1e-05 | < 0.1 | EP2 Agonist |
| O=C(Nc1cccc(Cc2nnn[nH]2)c1)c1ccc(-c2cc(Cl)cc(Cl)c2)o1 [Compound 82, 5-(3,5-Dichloro-phenyl)-furan-2-carboxylic acid [3-(1H-tetrazol-5-ylmethyl)-phenyl]-amide] | < 1e-07 | > 1e-05 | > 1e-05 | < 0.1 | EP2 Agonist |

Results, then the molecule that gave them:

| Ki (human EP2 receptor) [M] | Ki (human EP4 receptor) [M] | Ki (human EP3 receptor) [M] | EC50 [1] [µM] | activity (EP2 part) [1] | Compound |
| --- | --- | --- | --- | --- | --- |
| < 1e-07 | > 1e-05 | > 1e-05 | < 0.1 | EP2 Agonist | O=C(Nc1cccc(Cc2nnn[nH]2)c1)c1ccc(-c2ccc(F)cc2)o1 [Compound 85, 5-(4-Fluoro-phenyl)-furan-2-carboxylic acid [3-(1H-tetrazol-5-ylmethyl)-phenyl]-amide] |
| < 1e-07 | > 1e-05 | > 1e-05 | < 0.1 | EP2 Agonist | O=C(Nc1cccc(Cc2nnn[nH]2)c1)c1ccc(-c2ccc(Cl)cc2)o1 [Compound 87, 5-(4-Chloro-phenyl)-furan-2-carboxylic acid [3-(1H-tetrazol-5-ylmethyl)-phenyl]-amide] |
| < 1e-07 | > 1e-05 | > 1e-05 | < 0.1 | EP2 Agonist | O=C(Nc1cccc(/C=C/c2nnn[nH]2)c1)c1ccc(-c2ccccc2)o1 [Compound 89, 5-Phenyl-furan-2-carboxylic acid {3-[2-(1H-tetrazol-5-yl)-vinyl]-phenyl}-amide] |
| < 1e-07 | > 1e-05 | > 1e-05 | < 0.1 | EP2 Agonist | O=C(Nc1cccc(/C=C/c2nnn[nH]2)c1)c1ccc(-c2cccc(Cl)c2)o1 [Compound 90, 5-(3-Chloro-phenyl)-furan-2-carboxylic acid {3-[2-(1H-tetrazol-5-yl)-vinyl]-phenyl}-amide] |
| < 1e-06 | > 1e-05 | > 1e-05 | < 0.1 | EP2 Agonist | O=C(Nc1cccc(Cc2nnn[nH]2)c1)c1cccc(-c2ccccc2)n1 [Compound 92, 6-Phenyl-pyridine-2-carboxylic acid [3-(1H-tetrazol-5-ylmethyl)-phenyl]-amide] |
| < 1e-07 | > 1e-05 | > 1e-05 | < 0.1 | EP2 Agonist | O=C(Nc1cccc(Cc2nnn[nH]2)c1)c1cccc(-c2ccc(F)cc2)n1 [Compound 93, 6-(4-Fluoro-phenyl)-pyridine-2-carboxylic acid [3-(1H-tetrazol-5ylmethyl)-phenyl]-amide] |
| < 1e-07 | > 1e-05 | > 1e-05 | < 0.1 | EP2 Agonist | O=C(Nc1cccc(Cc2nnn[nH]2)c1)c1cccc(-c2cccc(F)c2)n1 [Compound 94, 6-(3-Fluoro-phenyl)-pyridine-2-carboxylic acid [3-(1H-tetrazol-5ylmethyl)-phenyl]-amide] |
